Results from patent US7041687B2, “Indazole compounds useful as protein kinase inhibitors” (Vertex Pharmaceuticals Incorporated, priority 2002, dated 2006).

Assays:
Format in all cases: biochemical
AKT-3 = AKT-3 (Homo sapiens, UniProt Q9Y243); test: AKT-3 inhibition assay (standard coupled enzyme assay); settings: 170 μM ATP, 200 μM peptide, 45 nM AKT, 30° C.
PDK-1 = target: T1, PDK-1 (Homo sapiens, UniProt O15530); test: PDK-1 inhibition assay (radioactive-phosphate incorporation); settings: 40 μM ATP, 65 μM PDKtide, 25 nM PDK-1, 30° C.
T1 sequence (O15530 1-556): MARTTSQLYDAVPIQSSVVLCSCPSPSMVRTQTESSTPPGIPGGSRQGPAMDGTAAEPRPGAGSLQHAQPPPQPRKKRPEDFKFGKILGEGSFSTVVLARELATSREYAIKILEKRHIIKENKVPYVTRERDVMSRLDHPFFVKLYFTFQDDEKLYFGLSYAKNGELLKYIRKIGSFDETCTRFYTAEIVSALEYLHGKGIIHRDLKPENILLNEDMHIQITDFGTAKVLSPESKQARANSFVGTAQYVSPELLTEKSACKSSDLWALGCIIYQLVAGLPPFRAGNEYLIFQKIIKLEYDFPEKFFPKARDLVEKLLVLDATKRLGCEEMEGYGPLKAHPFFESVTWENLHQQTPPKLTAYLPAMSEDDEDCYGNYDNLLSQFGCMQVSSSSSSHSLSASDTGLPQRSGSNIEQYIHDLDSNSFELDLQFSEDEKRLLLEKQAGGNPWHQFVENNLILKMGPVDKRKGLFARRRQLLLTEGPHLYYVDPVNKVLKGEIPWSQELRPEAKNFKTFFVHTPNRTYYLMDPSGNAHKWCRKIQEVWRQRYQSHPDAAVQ

PKA = PKA (Homo sapiens, UniProt P17612); test: PKA inhibition assay (standard coupled enzyme assay); settings: 50 μM ATP, 80 μM Kemptide, 18 nM PKA, 30° C.
Description: Compounds were screened for their ability to inhibit PKA using a standard coupled enzyme assay (Fox et al., Protein Sci., (1998) 7, 2249). Assays were carried out in a mixture of 100 mM HEPES 7.5, 10 mM MgCl2, 25 mM NaCl, 1 mM DTT and 3% DMSO. Final substrate concentrations in the assay were 50 μM ATP (Sigma Chemicals) and 80 μM peptide (Kemptide, American Peptide, Sunnyvale, Calif.). Assays were carried out at 30° C. and 18 nM PKA. Final concentrations of the components of the coupled enzyme system were 2.5 mM phosphoenolpyruvate, 300 μM NADH, 30 μg/ml pyruvate kinase and 10 μg/ml lactate dehydrogenase.
An assay stock buffer solution was prepared containing all of the reagents listed above, with the exception of ATP, and the test compound of interest. 55 μl of the stock solution was placed in a 96 well plate followed by addition of 2 μl of DMSO stock containing serial dilutions of the test compound (typically starting from a final concentration of 5 μM). The plate was preincubated for 10 minutes at 30° C. and the reaction initiated by addition of 5 μl of ATP (final concentration 50 μM). Initial reaction rates were determined with a Molecular Devices SpectraMax Plus plate reader over a 15 minute time course. IC50 and Ki data were calculated from non-linear regression analysis using the Prism software package (GraphPad Prism version 3.0a for Macintosh, GraphPad Software, San Diego Calif., USA).

AKT-3, sequence (Q9Y243 whole entry): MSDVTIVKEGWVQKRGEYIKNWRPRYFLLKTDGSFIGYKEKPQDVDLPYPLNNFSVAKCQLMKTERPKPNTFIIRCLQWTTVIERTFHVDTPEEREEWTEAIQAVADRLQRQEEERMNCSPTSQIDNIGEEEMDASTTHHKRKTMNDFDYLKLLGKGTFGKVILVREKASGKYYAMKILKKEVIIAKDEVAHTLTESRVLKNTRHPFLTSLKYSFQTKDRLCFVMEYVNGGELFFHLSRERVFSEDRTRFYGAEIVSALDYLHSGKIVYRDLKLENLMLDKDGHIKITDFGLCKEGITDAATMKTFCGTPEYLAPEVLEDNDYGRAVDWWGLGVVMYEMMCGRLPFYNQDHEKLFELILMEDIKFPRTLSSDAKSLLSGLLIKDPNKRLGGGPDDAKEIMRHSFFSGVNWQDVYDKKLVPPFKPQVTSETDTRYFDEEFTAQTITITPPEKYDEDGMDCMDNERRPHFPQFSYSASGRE

Row | Ki (AKT-3) | Ki (PDK-1) | Ki (PKA) | SMILES
1 | 1000 to 10000 nM | > 3000 nM | < 1000 nM | COc1ccccc1C(CCN)C(=O)Nc1ccc2[nH]ncc2c1 (stereo not drawn) [Compound I-113]
2 | < 1000 nM | < 1000 nM | < 1000 nM | NCCC(C(=O)Nc1ccc2[nH]nc(Cl)c2c1)c1ccc(Cl)c(Cl)c1 (stereo not drawn) [Compound I-121]
3 | 1000 to 10000 nM | < 1000 nM | < 1000 nM | NCCC(C(=O)Nc1ccc2[nH]nc(CCc3ccccc3)c2c1)c1ccc(Cl)c(Cl)c1 (stereo not drawn) [Compound I-123]
4 | < 1000 nM | 1000 to 3000 nM | < 1000 nM | C#Cc1n[nH]c2ccc(NC(=O)C(CCN)c3ccc(Cl)c(Cl)c3)cc12 (stereo not drawn) [Compound I-124]
5 | < 1000 nM | < 1000 nM | < 1000 nM | Cc1n[nH]c2ccc(NC(=O)[C@@H](CCN)c3cccc(Cl)c3F)cc12 [Compound I-126]
6 | < 1000 nM | 1000 to 3000 nM | < 1000 nM | Cc1n[nH]c2ccc(NC(=O)C(CCN)c3cccc(Cl)n3)cc12 (stereo not drawn) [Compound I-129]
7 | < 1000 nM | < 1000 nM | < 1000 nM | COc1c(C(CCN)C(=O)Nc2ccc3[nH]nc(C)c3c2)ccc(Cl)c1Cl (stereo not drawn) [Compound I-130]
8 | < 1000 nM | > 3000 nM | < 1000 nM | CCc1cccc(C(CCN)C(=O)Nc2ccc3[nH]nc(C)c3c2)c1 (stereo not drawn) [Compound I-135]
9 | < 1000 nM | < 1000 nM | < 1000 nM | Cc1n[nH]c2ccc(NC(=O)C(CCN)c3ccc(Cl)c(Cl)c3F)cc12 (stereo not drawn) [Compound I-136]
10 | < 1000 nM | < 1000 nM | < 1000 nM | NCCC(C(=O)Nc1ccc2[nH]nc(N)c2c1)c1ccc(Cl)c(Cl)c1 (stereo not drawn) [Compound I-138]
11 | < 1000 nM | < 1000 nM | < 1000 nM | Cc1n[nH]c2ccc(NC(=O)C(CCN)c3ccc(Cl)s3)cc12 (stereo not drawn) [Compound I-139]
12 | < 1000 nM | 1000 to 3000 nM | < 1000 nM | CC(=O)Nc1n[nH]c2ccc(NC(=O)C(CCN)c3ccc(Cl)c(Cl)c3)cc12 (stereo not drawn) [Compound I-140]
13 | < 1000 nM | > 3000 nM | < 1000 nM | NCCC(C(=O)Nc1cc(Br)c2[nH]nc(Cl)c2c1)c1ccc(Cl)c(Cl)c1 (stereo not drawn) [Compound I-145]
14 | < 1000 nM | 1000 to 3000 nM | < 1000 nM | Cc1cc(NC(=O)C(CCN)c2ccc(Cl)c(Cl)c2)cc2cn[nH]c12 (stereo not drawn) [Compound I-147]
15 | 1000 to 10000 nM | 1000 to 3000 nM | < 1000 nM | NCCC(C(=O)Nc1ccc2[nH]nc(NCc3ccccc3)c2c1)c1ccc(Cl)c(Cl)c1 (stereo not drawn) [Compound I-158]
16 | < 1000 nM | > 3000 nM | < 1000 nM | NCCC(C(=O)Nc1ccc2[nH]nc(Nc3cccc(OCc4ccccc4)c3)c2c1)c1ccc(Cl)c(Cl)c1 (stereo not drawn) [Compound I-161]
17 | < 1000 nM | < 1000 nM | < 1000 nM | NCCC(C(=O)Nc1ccc2[nH]nc(Nc3cccc(Cl)c3)c2c1)c1ccc(Cl)c(Cl)c1 (stereo not drawn) [Compound I-162]
18 | < 1000 nM | > 3000 nM | < 1000 nM | NCCC(C(=O)Nc1ccc2[nH]nc(Nc3ccc(Cl)cc3)c2c1)c1ccc(Cl)c(Cl)c1 (stereo not drawn) [Compound I-163]
19 | < 1000 nM | 1000 to 3000 nM | < 1000 nM | N#Cc1ccc(Nc2n[nH]c3ccc(NC(=O)C(CCN)c4ccc(Cl)c(Cl)c4)cc23)cc1 (stereo not drawn) [Compound I-164]
20 | < 1000 nM | < 1000 nM | < 1000 nM | N#Cc1cccc(Nc2n[nH]c3ccc(NC(=O)C(CCN)c4ccc(Cl)c(Cl)c4)cc23)c1 (stereo not drawn) [Compound I-165]
21 | < 1000 nM | < 1000 nM | < 1000 nM | COc1ccc(C(=O)Nc2n[nH]c3ccc(NC(=O)C(CCN)c4ccc(Cl)c(Cl)c4)cc23)cc1 (stereo not drawn) [Compound I-168]
22 | < 1000 nM | < 1000 nM | < 1000 nM | NCCC(C(=O)Nc1ccc2[nH]nc(NC(=O)c3cccs3)c2c1)c1ccc(Cl)c(Cl)c1 (stereo not drawn) [Compound I-169]
23 | < 1000 nM | < 1000 nM | < 1000 nM | NCCC(C(=O)Nc1ccc2[nH]nc(NC(=O)c3ccc(-c4ccccc4)cc3)c2c1)c1ccc(Cl)c(Cl)c1 (stereo not drawn) [Compound I-172]

Second part, the compound before the results:

Row | SMILES | Ki (AKT-3) | Ki (PDK-1) | Ki (PKA)
24 | NCCC(C(=O)Nc1ccc2[nH]ncc2c1)c1cccc(Cl)c1Cl (stereo not drawn) [Compound I-106] | < 1000 nM | < 1000 nM | < 1000 nM
25 | NCCC(C(=O)Nc1ccc2[nH]ncc2c1)c1cccc(N)c1 (stereo not drawn) [Compound I-107] | 1000 to 10000 nM | 1000 to 3000 nM | < 1000 nM
26 | CSc1cccc(C(CCN)C(=O)Nc2ccc3[nH]ncc3c2)c1 (stereo not drawn) [Compound I-108] | < 1000 nM | 1000 to 3000 nM | < 1000 nM
27 | NCCC(C(=O)Nc1ccc2[nH]ncc2c1)c1c(F)ccc(Cl)c1F (stereo not drawn) [Compound I-109] | < 1000 nM | < 1000 nM | < 1000 nM
28 | NCCC(C(=O)Nc1ccc2[nH]ncc2c1)c1cccc(Br)c1 (stereo not drawn) [Compound I-110] | < 1000 nM | < 1000 nM | < 1000 nM
29 | Cc1n[nH]c2ccc(NC(=O)C(CCN)c3ccc(Cl)c(Cl)c3)cc12 (stereo not drawn) [Compound I-117] | < 1000 nM | < 1000 nM | < 1000 nM
30 | CCc1n[nH]c2ccc(NC(=O)C(CCN)c3ccc(Cl)c(Cl)c3)cc12 (stereo not drawn) [Compound I-118] | < 1000 nM | 1000 to 3000 nM | < 1000 nM
31 | NCCC(C(=O)Nc1ccc2[nH]nc(-c3ccccc3)c2c1)c1ccc(Cl)c(Cl)c1 (stereo not drawn) [Compound I-119] | < 1000 nM | < 1000 nM | < 1000 nM
32 | Cc1n[nH]c2ccc(NC(=O)C(CCN)c3cccc(Cl)c3Cl)cc12 (stereo not drawn) [Compound I-120] | < 1000 nM | < 1000 nM | < 1000 nM
33 | NCCC(C(=O)Nc1ccc2[nH]nc(Br)c2c1)c1ccc(Cl)c(Cl)c1 (stereo not drawn) [Compound I-122] | < 1000 nM | 1000 to 3000 nM | < 1000 nM
34 | Cc1n[nH]c2ccc(NC(=O)[C@H](CCN)c3cccc(Cl)c3F)cc12 [Compound I-125] | < 1000 nM | < 1000 nM | < 1000 nM
35 | Cc1cccc(C(CCN)C(=O)Nc2ccc3[nH]nc(C)c3c2)c1 (stereo not drawn) [Compound I-131] | < 1000 nM | > 3000 nM | < 1000 nM
36 | Cc1n[nH]c2ccc(NC(=O)C(CCN)c3ccc(Cl)cc3F)cc12 (stereo not drawn) [Compound I-132] | < 1000 nM | < 1000 nM | < 1000 nM
37 | Cc1n[nH]c2ccc(NC(=O)C(CCN)c3ccc(Cl)c(Cl)c3O)cc12 (stereo not drawn) [Compound I-133] | < 1000 nM | > 3000 nM | < 1000 nM
38 | CNc1n[nH]c2ccc(NC(=O)C(CCN)c3ccc(Cl)c(Cl)c3)cc12 (stereo not drawn) [Compound I-134] | < 1000 nM | > 3000 nM | < 1000 nM
39 | NCCC(C(=O)Nc1ccc2[nH]nc(NC(=O)c3ccccc3)c2c1)c1ccc(Cl)c(Cl)c1 (stereo not drawn) [Compound I-141] | < 1000 nM | < 1000 nM | < 1000 nM
40 | CNCCC(C(=O)Nc1ccc2[nH]ncc2c1)c1ccc(Cl)c(Cl)c1 (stereo not drawn) [Compound I-153] | < 1000 nM | > 3000 nM | < 1000 nM
41 | NCCCC(C(=O)Nc1ccc2[nH]ncc2c1)c1ccc(Cl)c(Cl)c1 (stereo not drawn) [Compound I-155] | < 1000 nM | > 3000 nM | < 1000 nM
42 | O=C(Nc1ccc2[nH]ncc2c1)C1(c2ccccc2)CCNCC1 [Compound I-156] | 1000 to 10000 nM | > 3000 nM | < 1000 nM
43 | NCCC(C(=O)Nc1ccc2[nH]nc(NC3CCCCC3)c2c1)c1ccc(Cl)c(Cl)c1 (stereo not drawn) [Compound I-159] | 1000 to 10000 nM | > 3000 nM | < 1000 nM
44 | NCCC(C(=O)Nc1ccc2[nH]nc(NC(=O)c3cccc(Cl)c3)c2c1)c1ccc(Cl)c(Cl)c1 (stereo not drawn) [Compound I-160] | < 1000 nM | 1000 to 3000 nM | < 1000 nM
45 | NCCC(C(=O)Nc1ccc2[nH]nc(Nc3ccc(Br)cc3)c2c1)c1ccc(Cl)c(Cl)c1 (stereo not drawn) [Compound I-166] | < 1000 nM | 1000 to 3000 nM | < 1000 nM
46 | COc1cccc(C(=O)Nc2n[nH]c3ccc(NC(=O)C(CCN)c4ccc(Cl)c(Cl)c4)cc23)c1 (stereo not drawn) [Compound I-167] | < 1000 nM | < 1000 nM | < 1000 nM
